ChEMBL document CHEMBL1148696, “Synthesis, characterization, cytotoxicity, antibacterial and antifungal evaluation of some new platinum (IV) and palladium (II) complexes of thiodiamines” (2007)
Values after ≈ are worked out from the molar mass of the structure shown.

What was measured:
Aspergillus fumigatus [1] = experiment: Antifungal activity against Aspergillus fumigatus after 48 hrs by micro-broth dilution method; format: functional
Aspergillus fumigatus [2] = experiment: Antifungal activity against Aspergillus fumigatus after 10 hrs by spore germination inhibition assay; format: functional
Aspergillus flavus [3] = experiment: Antifungal activity against Aspergillus flavus after 48 hrs by micro-broth dilution method; format: functional
Aspergillus flavus [4] = experiment: Antifungal activity against Aspergillus flavus after 10 hrs by spore germination inhibition assay; format: functional
Aspergillus niger [5] = experiment: Antifungal activity against Aspergillus niger after 48 hrs by micro-broth dilution method; format: functional
Aspergillus niger [6] = experiment: Antifungal activity against Aspergillus niger after 10 hrs by spore germination inhibition assay; format: functional
Escherichia coli [7] = experiment: Antibacterial activity against Escherichia coli after 18 hrs by disk diffusion method; format: functional, organism-based
Escherichia coli [8] = experiment: Antibacterial activity against Escherichia coli by micro dilution method; format: functional, organism-based

C[C@@H]1[C@H](O)[C@@H](C)/C=C/C=C/C=C/C=C/C=C/C=C/C=C/[C@H](O[C@@H]2O[C@H](C)[C@@H](O)[C@H](N)[C@@H]2O)C[C@@H]2O[C@](O)(C[C@@H](O)C[C@@H](O)[C@H](O)CC[C@@H](O)C[C@@H](O)CC(=O)O[C@H]1C)C[C@H](O)[C@H]2C(=O)O [AMPHOTERICIN B] gave an MIC (Aspergillus fumigatus [1]) of 5 µg/mL (≈ 5.41 µM), an MIC (Aspergillus fumigatus [2]) of 5 µg/mL (≈ 5.41 µM) and an MIC (Aspergillus flavus [3]) of 5 µg/mL (≈ 5.41 µM). It also gave an MIC (Aspergillus flavus [4]) of 5 µg/mL (≈ 5.41 µM), an MIC (Aspergillus niger [5]) of 5 µg/mL (≈ 5.41 µM) and an MIC (Aspergillus niger [6]) of 5 µg/mL (≈ 5.41 µM).

GENTAMICIN showed an inhibition zone (IZ) (Escherichia coli [7]) of 16 mm and an MIC (Escherichia coli [8]) of 1 µg.
